Test results as given in patent US20050186568A1, “Kinases and phosphatases” (priority 2001, published 2005).

Experiments:
[1] = system: SEQ ID NO:67; experiment: Microarray analysis of SEQ ID NO:67 expression in steroid-treated C3A cells; assay type: cell-based, human; conditions: early confluent C3A cells treated for 1, 3, or 6 hours
Procedure: (§1) Total RNA is isolated from tissue samples using the guanidinium thiocyanate method and poly(A)^+ RNA is purified using the oligo-(dT) cellulose method. Each poly(A)^+ RNA sample is reverse transcribed using MMLV reverse-transcriptase, 0.05 pg/μl oligo-(dT) primer (21 mer), 1× first strand buffer, 0.03 units/μl RNase inhibitor, 500 μM dATP, 500 μM dGTP, 500 μM dTTP, 40 μM dCTWP, 40 μM dCTP-Cy3 (BDS) or dCTP-Cy5 (Amersham Biosciences). The reverse transcription reaction is performed in a […] containing 200 ng poly(A)^+ RNA with GEMBRIGHT kits (Incyte Genomics). Specific control poly(A)^+ RNAs are synthesized by in vitro transcription from non-coding yeast genomic DNA. After incubation at 37° C. for 2 hr, each reaction sample (one with Cy3 and another with Cy5 labeling) is treated with […] of 0.5M sodium hydroxide and incubated for 20 minutes at 85° C. to the stop the reaction and degrade the RNA. Samples are purified using two successive CHROMA SPIN 30 gel filtration spin columns (Clontech, Palo Alto Calif.) and after combining, both reaction samples are ethanol precipitated using […] of 100% ethanol. The sample is then dried to completion using a SpeedVAC (Savant Instruments Inc., Holbrook N.Y.) and resuspended in 14 μl 5×SSC/0.2% SDS.
Sequences of the present invention are used to generate array elements. Each array element is amplified from bacterial cells containing vectors with cloned cDNA inserts. PCR amplification uses primers complementary to the vector sequences flanking the cDNA insert. Array elements are amplified in thirty cycles of PCR from an initial quantity of 1-2 ng to a final quantity greater than 5 μg. Amplified array elements are then purified using SEPHACRYL-400 (Amersham Biosciences).
Purified array elements are immobilized on polymer-coated glass slides. Glass microscope slides (Corning) are cleaned by ultrasound in 0.1% SDS and acetone, with extensive distilled water washes between and after treatments. Glass slides are etched in 4% hydrofluoric acid (VWR Scientific Products Corporation (VWR), West Chester Pa.), washed extensively in distilled water, and coated with 0.05% aminopropyl silane (Sigma) in 95% ethanol. Coated slides are cured in a 110° C. oven.
Array elements are applied to the coated glass substrate using a procedure described in U.S. Pat. No. 5,807,522, incorporated herein by reference. 1 μl of the array element DNA, at an average concentration of 100 ng/μl, is loaded into the open capillary printing element by a high-speed robotic apparatus. The apparatus then deposits about 5 nl of array element sample per slide.
Microarrays are UV-crosslinked using a STRATALINKER UV-crosslinker (Stratagene). […]

[2] = system: SEQ ID NO:57; experiment: Microarray analysis of SEQ ID NO:57 expression in steroid-treated C3A cells; assay type: cell-based, human; conditions: early confluent C3A cells, 1, 3 and 6 hours (all time points), compared to untreated C3A cells
Procedure: as §1, with “The sample is then dried to completion using a SpeedVAC (Savant Instruments Inc., Holbrook N.Y.) and resuspended in 14 μl 5×SSC/0.2% SDS.” left out
Sequences of the present invention are used to generate array elements. […] Array elements are amplified in thirty cycles of PCR from an initial quantity of 1-2 ng to a final quantity greater than 5 μg. […]

[3] = relative to progesterone; cited from earlier work
[4] = target: CKI-epsilon (Homo sapiens, UniProt P49674); conditions: recombinant expression; cited from earlier work
Sequence of CKI-epsilon (P49674 whole entry): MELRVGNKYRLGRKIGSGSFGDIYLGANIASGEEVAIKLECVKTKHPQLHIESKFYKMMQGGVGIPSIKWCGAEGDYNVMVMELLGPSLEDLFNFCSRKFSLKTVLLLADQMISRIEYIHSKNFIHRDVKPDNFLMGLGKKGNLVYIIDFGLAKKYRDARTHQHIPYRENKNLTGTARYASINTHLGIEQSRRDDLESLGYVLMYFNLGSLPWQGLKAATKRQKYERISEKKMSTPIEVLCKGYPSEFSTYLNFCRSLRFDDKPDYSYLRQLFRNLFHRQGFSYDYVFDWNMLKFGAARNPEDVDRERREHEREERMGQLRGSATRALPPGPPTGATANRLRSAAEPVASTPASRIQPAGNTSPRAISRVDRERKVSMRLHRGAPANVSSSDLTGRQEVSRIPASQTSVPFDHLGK

| Molecule | expression of SEQ ID NO:67 [1] | further results |
| --- | --- | --- |
| C[C@]12C=CC(=O)C=C1CC[C@@H]1[C@@H]2C(=O)C[C@@]2(C)[C@H]1CC[C@]2(O)C(=O)CO [prednisone] | at least a two-fold decrease |  |
| C[C@H]1C[C@H]2[C@@H]3CCC4=CC(=O)C=C[C@]4(C)[C@@]3(Cl)[C@@H](O)C[C@]2(C)[C@@]1(O)C(=O)CO [beclomethasone] | at least a two-fold decrease | expression of SEQ ID NO:57 ([2]; beclamethasone at 10 μM): increased by at least two-fold |
| CC(=O)[C@H]1CC[C@H]2[C@@H]3CCC4=CC(=O)CC[C@]4(C)[C@H]3CC[C@]12C [progesterone] | at least a two-fold decrease | expression of SEQ ID NO:57 ([2]; progesterone at 100 μM): increased by at least two-fold |
| 6α-methyl-17-hydroxyprogesterone [medroxyprogesterone] | at least a two-fold decrease | pharmacological activity greater than progesterone [3]: about 15 times |
| NCCNS(=O)(=O)c1ccc(Cl)c2ccncc12 [CKI-7] |  | inhibition of CKI-epsilon [4]: inhibited |
